Measurements published in patent US11028090B2 (Dong Wha Pharm. Co., Ltd., priority 2017, dated 2021).
Where a name gives a salt, the structure may show the parent alone. Read-outs that look alike come from different tables or passages of the source.

Target: BRD4 (BD1+BD2) bromodomain (Homo sapiens (Human), UniProt O60885)
Assay: BRD4 binding inhibition (AlphaScreen, GST-BRD4 vs tetraacetylated histone H4 peptide)
Procedure, shortened: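 GST-BRD4 (BD1+BD2) and biotinylated tetraacetyl-histone H4 peptide, each at 100 nM in HEPES pH 7.4 buffer with BSA and DTT, were combined with compound. Glutathione acceptor and streptavidin donor beads were added, then incubated 30 min at room temperature in the dark. Read-out was AlphaScreen signal.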

[1] = GST-BRD4 (BD1+BD2) vs biotinylated acetyl-histone H4 peptide, AlphaScreen, read-out: BRD4 IC50
[2] = GST-BRD4 (BD1+BD2) / biotinylated acetyl-histone H4 (Lys5,8,12,16) peptide, read-out: IC50, BRD4 binding inhibition

SMILES | IC50 [1] [nM] | IC50 [2] [nM]
CCNC(=O)NCCCCNc1nc2cc(OCCOC)ccc2n2c(C)nnc12 [Example 423, 1-ethyl-3-{4-[7-(2-methoxy-ethoxy)-1-methyl-[1,2,4]triazolo[4,3-a]quinoxaline-4-ylamino]-butyl}-urea] | 27 | ≤ 50
COCCOc1ccc2c(c1)nc(NCCCCNC(=O)N1CCOCC1)c1nnc(C)n12 [Example 425, morpholine-4-carboxylic acid-{4-[7-(2-methoxy-ethoxy)-1-methyl-[1,2,4]triazolo[4,3-a]quinoxaline-4-ylamino]-butyl}-amide] | 28 | ≤ 50
COCCOc1ccc2c(c1)nc(NCCCCNC(=O)Nc1ccccc1)c1nnc(C)n12 [Example 427, 3-{4-[7-(2-methoxy-ethoxy)-1-methyl-[1,2,4]triazolo[4,3-a]quinoxaline-4-ylamino]-butyl}-1-phenyl-urea] | 17 | ≤ 50
Cc1nnc2c(NCCCCNC(=O)OC(C)(C)C)nc3cc(OC(C)C)ccc3n12 [Example 447, [4-(7-isopropoxy-1-methyl-[1,2,4]triazolo[4,3-a]quinoxaline-4-ylamino)-butyl]-carbamic acid-tert-butylester] | 21 | ≤ 50
COc1cc2nc(NCCCCNC(=O)OCC(C)C)c3nnc(C)n3c2cc1C(F)(F)F [Example 474, [4-(7-methoxy-1-methyl-8-trifluoromethyl-[1,2,4]triazolo[4,3-a]quinoxaline-4-ylamino)-butyl]-carbamic acid isobutylester] | 44 | ≤ 50
COc1cc2nc(NCCCCNC(=O)NC3CCCCC3)c3nnc(C)n3c2cc1C(F)(F)F [Example 482, 1-cyclohexyl-3-[4-(7-methoxy-1-methyl-8-trifluoromethyl-[1,2,4]triazolo[4,3-a]quinoxaline-4-ylamino)-butyl]-urea] | 20 | ≤ 50
COc1cc2nc(NCCCCNC(=O)CC(C)C)c3nnc(C)n3c2c(OC)c1OC [Example 488, 3-methyl-N-[4-(7,8,9-trimethoxy-1-methyl-[1,2,4]triazolo[4,3-a]quinoxaline-4-ylamino)-butyl]-butyramide] | 35 | ≤ 50
CCC(C)CC(=O)NCCCCNc1nc2c(OC)cc(OC)c(OC)c2n2c(C)nnc12 (centres unmarked) [Example 489, 3-methyl-pentanoic acid-[4-(6,8,9-trimethoxy-1-methyl-[1,2,4]triazolo[4,3-a]quinoxaline-4-ylamino)-butyl]-amide] | 30 | ≤ 50
Cc1nnc2c(NCCCCNC(=O)[C@@H](F)C(C)C)nc3cc(N4C[C@@H](C)O[C@@H](C)C4)ccc3n12 [Example 511, N-{4-[7-(2,6-dimethyl-morphonyl-4-yl)-1-methyl-[1,2,4]triazolo[4,3-a]quinoxaline-4-ylamino]-butyl}-2-(S)-fluoro-3-methyl-butyramide] | 34 | ≤ 50
Cc1nnc2c(NCCCCNC(=O)CC(C)C)nc3cc(N4CCSCC4)ccc3n12 [Example 523, 3-methyl-N-[4-(1-methyl-7-thiomorpholine-4-yl-[1,2,4]triazolo[4,3-a]quinoxaline-4-ylamino)-butyl]-butyramide] | 54 | 
Cc1nnc2c(NCCCCNC(=O)[C@H](O)C(C)C)nc3cc(N4CCSCC4)ccc3n12 [Example 524, N-[4-(7-thiomorphonyl-4-yl-1-methyl-[1,2,4]triazolo[4,3-a]quinoxaline-4-ylamino)-butyl]-2-(R)-hydroxy-3-methyl-butyramide] | 69 | 
COC(=O)c1ccc2nc(NCCCCNC(=O)OC(C)(C)C)c3nnc(C)n3c2c1 [Example 530, 4-(4-tert-butoxycarbonylamino-butylamino)-1-methyl-[1,2,4]triazolo[4,3-a]quinoxaline-8-carboxylic acid methylester] | 34 | ≤ 50
Cc1nnc2c(NCCCCNC(=O)c3ccccc3)nc3ccc(C(=O)NCCN(C)C)cc3n12 [Example 537, 4-(4-benzoylamino)-1-methyl-[1,2,4]triazolo[4,3-a]quinoxaline-8-carboxylic acid-(2-dimethylamino-ethyl)-amide] | 93 | 

Next, values leading:

IC50 [1] [nM] | IC50 [2] [nM] | SMILES
60 |  | COCCOc1ccc2c(c1)nc(NCCCCNC(=O)c1cccnc1)c1nnc(C)n12 [Example 417, N-{4-[7-(2-methoxy-ethoxy)-1-methyl-[1,2,4]triazolo[4,3-a]quinoxaline-4-ylamino]-butyl}-nicotinamide]
49 | ≤ 50 | COCCOc1ccc2c(c1)nc(NCCCCNC(=O)c1ccncc1)c1nnc(C)n12 [Example 418, N-{4-[7-(2-methoxy-ethoxy)-1-methyl-[1,2,4]triazolo[4,3-a]quinoxaline-4-ylamino]-butyl}-isonicotinamide]
25 | ≤ 50 | COCCOc1ccc2c(c1)nc(NCCCCNC(=O)NC(C)(C)C)c1nnc(C)n12 [Example 424, 1-tert-butyl-3-{4-[7-(2-methoxy-ethoxy)-1-methyl-[1,2,4]triazolo[4,3-a]quinoxaline-4-ylamino]-butyl}-urea]
4 | ≤ 10 | COCCOc1ccc2c(c1)nc(NCCCCNC(=O)SC(C)C)c1nnc(C)n12 [Example 428, {4-[7-(2-methoxy-ethoxy)-1-methyl-[1,2,4]triazolo[4,3-a]quinoxaline-4-ylamino]-butyl}-thiocarbamic acid-S-isopropylester]
21 | ≤ 50 | Cc1nnc2c(NCCCCNC(=O)[C@H](O)C(C)C)nc3cc(OCCN4CCOCC4)ccc3n12 [Example 434, 2-(R)-hydroxy-N-{4-[7-(2-morpholine-4-yl-ethoxy)-1-methyl-[1,2,4]triazolo[4,3-a]quinoxaline-4-ylamino]-butyl}-3-methyl-butyramide]
5 | ≤ 10 | Cc1nnc2c(NCCCCN)nc3cc(OC(C)C)ccc3n12 [Example 448, N^1-(7-isopropoxy-1-methyl-[1,2,4]triazolo[4,3-a]quinoxaline-4-yl)-butane-1,4-diamine ditrifluoroacetic acid]
31 | ≤ 50 | COc1cc(C)c2c(c1)nc(NCCCCNC(=O)OC(C)(C)C)c1nnc(C)n12 [Example 455, [4-(7-methoxy-1,9-dimethyl-[1,2,4]triazolo[4,3-a]quinoxaline-4-ylamino)-butyl]-carbamic acid-tert-butylester]
75 |  | COc1cc(C)c2c(c1)nc(NCCCCN)c1nnc(C)n12 [Example 456, N^1-(7-methoxy-1,9-dimethyl-[1,2,4]triazolo[4,3-a]quinoxaline-4-yl)-butane-1,4-diamine ditrifluoroacetic acid]
 | ≤ 50 | COc1cc(C)c2c(c1)nc(NCCCCNC(=O)OC(C)C)c1nnc(C)n12 [Example 457, [4-(7-methoxy-1,9-dimethyl-[1,2,4]triazolo[4,3-a]quinoxaline-4-ylamino)-butyl]-carbamic acid-isopropylester]
30 | ≤ 50 | COc1ccc2c(nc(NCCCCNC(=O)OC(C)(C)C)c3nnc(C)n32)c1Cl [Example 459, [4-(6-chloro-7-methoxy-1-methyl-[1,2,4]triazolo[4,3-a]quinoxaline-4-ylamino)-butyl]-carbamic acid-tert-butylester]
12 | ≤ 50 | COc1ccc2c(nc(NCCCCN)c3nnc(C)n32)c1Cl [Example 460, dihydrochloride]
20 | ≤ 50 | COc1cc2nc(NCCCCNC(=O)C(C)(C)C)c3nnc(C)n3c2cc1C(F)(F)F [Example 477, N-[4-(7-methoxy-1-methyl-8-trifluoromethyl-[1,2,4]triazolo[4,3-a]quinoxaline-4-ylamino)-butyl]-2,2-dimethyl-propionamide]
44 | ≤ 50 | COc1cc2nc(NCCCCNC(=O)[C@H](O)C(C)C)c3nnc(C)n3c2cc1C(F)(F)F [Example 478, 2-(R)-hydroxy-N-[4-(7-methoxy-1-methyl-8-trifluoromethyl-[1,2,4]triazolo[4,3-a]quinoxaline-4-ylamino)-butyl]-3-methyl-butyramide]
51 |  | COc1cc2nc(NCCCCNC(=O)c3ccccc3Cl)c3nnc(C)n3c2cc1C(F)(F)F [Example 481, 2-chloro-N-[4-(7-methoxy-1-methyl-8-trifluoromethyl-[1,2,4]triazolo[4,3-a]quinoxaline-4-ylamino)-butyl]-benzamide]
59 |  | COCCOc1cc2c(cc1OC)nc(NCCCCNC(=O)CC(C)C)c1nnc(C)n12 [Example 485, N-{4-[7-methoxy-8-(2-methoxy-ethoxy)-1-methyl-[1,2,4]triazolo[4,3-a]quinoxaline-4-ylamino]-butyl}-3-methyl-butyramide]
98 |  | Cc1nnc2c(NCCCCN)nc3cc(N4CCOCC4)ccc3n12 [Example 498, N^1-(1-methyl-7-morpholine-4-yl-[1,2,4]triazolo[4,3-a]quinoxaline-4-yl)-butane-1,4-diamine dihydrochloride]
34 | ≤ 50 | Cc1nnc2c(NCCCCNC(=O)[C@@H](NC(=O)[C@H](C)O)C(C)C)nc3cc(N4CCOCC4)ccc3n12 [Example 504, (S)-2-(2-(S)-hydroxy-propionylamino)-3-methyl-N-[4-(1-methyl-7-morpholine-4-yl-[1,2,4]triazolo[4,3-a]quinoxaline-4-ylamino)-butyl]-butyramide hydrochloride]
75 |  | Cc1nnc2c(NCCCCNC(=O)OC(C)(C)C)nc3ccc(C(=O)NC(C)C)cc3n12 [Example 532, [4-(8-isopropylcarbamoyl-1-methyl-[1,2,4]triazolo[4,3-a]quinoxaline-4-ylamino)-butyl]-carbamic acid-tert-butylester]
67 |  | Cc1nnc2c(NCCCCNC(=O)OC(C)(C)C)nc3ccc(C(N)=O)cc3n12 [Example 533, [4-(8-carbamoyl-1-methyl-[1,2,4]triazolo[4,3-a]quinoxaline-4-ylamino)-butyl]-carbamic acid-tert-butylester]
